{"source": "patent US6413517B1", "about": "“Identification of broadly reactive DR restricted epitopes” (Epimmune, Inc., priority 1997, dated 2002)", "key": {"DRB1*0101 (DR1)": {"biological_target": "T1, DRB1*0101 (DR1) (Homo sapiens, UniProt P01903+P01911, A100R/D57E/F55L/F60I/F76Y/I96L/L162R/M171V/P40L/Q125E/R42F/V115G/Y59C)", "T1 construct": "Epstein-Barr virus (EBV) transformed homozygous cell lines were used as sources; endogenous in cells; host or cells: LG2 (EBV-transformed homozygous B cell line)", "experiment": "biochemical", "assay_type": "binding", "conditions": "Binding Capacity (IC 50% nM) DR1,4,7 DRB1"}, "DRB1*0401 (DR4w4)": {"biological_target": "T2, DRB1*0401 (DR4w4) (Homo sapiens, UniProt P01903+P01911, A100K/A169T/F76Y/I96L/K127E/L162R/M171V/N62H/P40V/Q125Y/R42H/S133A/S149N/S66Y/V115G/V209L/W38E)", "T2 construct": "Epstein-Barr virus (EBV) transformed homozygous cell lines were used as sources; endogenous in cells; host or cells: PREISS (EBV-transformed homozygous B cell line)", "experiment": "biochemical", "assay_type": "binding"}, "DRB1*0701 (DR7)": {"biological_target": "T3, DRB1*0701 (DR7) (Homo sapiens, UniProt P01903+P01911, A100R/A102G/A103Q/D57E/D86V/E43K/F76Y/K127E/L162R/M171V/P40G/Q125H/Q99D/R33Q/R42Y/R54Q/S133A/S66F/T210M/V115G/Y107V/Y59L/Y89S)", "T3 construct": "Epstein-Barr virus (EBV) transformed homozygous cell lines were used as sources; endogenous in cells; host or cells: PITOUT (EBV-transformed homozygous B cell line)", "experiment": "biochemical", "assay_type": "binding"}, "DRB1*1501 (DR2w2b)": {"biological_target": "T4, DRB1*1501 (DR2w2b) (Homo sapiens, UniProt P01903+P01911)", "T4 construct": "expressed in transfected cells; host or cells: transfected fibroblasts L466.1", "experiment": "biochemical", "assay_type": "binding", "conditions": "Binding Capacity (IC 50% nM) Other Alleles DR2w2b"}, "DRB5*0101 (DR2w2a)": {"biological_target": "T5, DRB5*0101 (DR2w2a) (Homo sapiens, UniProt P01903+Q30154)", "T5 construct": "Epstein-Barr virus (EBV) transformed homozygous cell lines were used as sources; endogenous in cells; host or cells: GM3107 (EBV-transformed homozygous B cell line)", "experiment": "biochemical", "assay_type": "binding"}, "DRB1*0405 (DR4w15)": {"biological_target": "T6, DRB1*0405 (DR4w15) (Homo sapiens, UniProt P01903+P01911, A100R/A169T/D86S/F76Y/I96L/K127E/L162R/M171V/N62H/P40V/Q125Y/R42H/S133A/S149N/S66Y/V115G/V209L/W38E)", "T6 construct": "Epstein-Barr virus (EBV) transformed homozygous cell lines were used as sources; endogenous in cells; host or cells: KT3 (EBV-transformed homozygous B cell line)", "experiment": "biochemical", "assay_type": "binding", "conditions": "read-out: Binding Capacity (IC 50% nM) Other Alleles DR4w15"}, "DRB1*1101 (DR5w11)": {"biological_target": "T7, DRB1*1101 (DR5w11) (Homo sapiens, UniProt P01903+P01911, A100R/A169T/A87E/I96F/K41T/L162R/M171V/P40S/Q125H/Q178H/Q39Y/Q99D/R42S/S66Y/T262R/V115G/W38E)", "T7 construct": "Epstein-Barr virus (EBV) transformed homozygous cell lines were used as sources; endogenous in cells; host or cells: SWEIG (EBV-transformed homozygous B cell line)", "T7 sequence (P01903 26-254, other chains not shown)": "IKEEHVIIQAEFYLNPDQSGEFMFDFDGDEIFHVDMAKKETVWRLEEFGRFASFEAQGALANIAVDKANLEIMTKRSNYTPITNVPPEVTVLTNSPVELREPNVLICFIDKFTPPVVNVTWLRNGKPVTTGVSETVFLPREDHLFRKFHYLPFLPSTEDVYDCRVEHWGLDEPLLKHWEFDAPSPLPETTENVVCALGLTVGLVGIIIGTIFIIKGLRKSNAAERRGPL", "experiment": "biochemical", "assay_type": "binding"}, "DRB1*1302 (DR6w19)": {"biological_target": "T8, DRB1*1302 (DR6w19) (Homo sapiens, UniProt P01903+P01911, A100E/A169T/K41T/L162R/M171V/P40S/Q125H/Q178H/Q39Y/Q99D/R42S/S66N/T262R/V115G/W38E/Y61H)", "T8 construct": "Epstein-Barr virus (EBV) transformed homozygous cell lines were used as sources; the source of Class II molecules the EBV transformed homozygous cell line H0301; endogenous in cells; host or cells: H0301 (EBV-transformed homozygous B cell line)", "experiment": "biochemical", "assay_type": "binding", "conditions": "Binding Capacity (IC 50% nM) Other Alleles DR6w19"}, "DRB1*0802 (DR8w2)": {"biological_target": "T9, DRB1*0802 (DR8w2) (Homo sapiens, UniProt P01903+P01911, A100R/A103L/A169T/F76Y/H45Y/I96F/K41T/L162R/M171V/P40S/Q125H/Q178H/Q39Y/Q99D/R218S/R42G/S66Y/V115G/W38E)", "T9 construct": "Epstein-Barr virus (EBV) transformed homozygous cell lines were used as sources; endogenous in cells; host or cells: OLL (EBV-transformed homozygous B cell line)", "experiment": "biochemical", "assay_type": "binding"}, "DRB1*0901 (DR9)": {"biological_target": "T10, DRB1*0901 (DR9) (Homo sapiens, UniProt P01903+P01911, A100R/A103E/D57H/D86V/F55Y/F60I/F76Y/I96F/K127E/L162R/M171V/P40D/Q125H/Q99R/R33Q/R42F/S133A/S66N/T210M/V115G/W38K/Y107V/Y59G/Y89S)", "T10 construct": "Epstein-Barr virus (EBV) transformed homozygous cell lines were used as sources; endogenous in cells", "experiment": "biochemical", "assay_type": "binding"}, "DRB1*1201 (DR5w12)": {"biological_target": "T11, DRB1*1201 (DR5w12) (Homo sapiens, UniProt P01903+P01911, A100R/A169T/D57E/D86V/F55L/H45Y/K41T/L162R/M171V/P40S/Q125H/Q178H/Q39Y/Q99D/R42G/S66L/T262R/V114A/V67L/W38E/Y59H/Y61H/Y89S)", "T11 construct": "Epstein-Barr virus (EBV) transformed homozygous cell lines were used as sources; endogenous in cells; host or cells: Herluf (EBV-transformed homozygous B cell line)", "experiment": "biochemical", "assay_type": "binding"}, "DRB1*0301 (DR3w17) [1]": {"biological_target": "T12, DRB1*0301 (DR3w17) (Homo sapiens, UniProt P01903+P01911, A100K/A102G/A103R/A169T/F55Y/I96L/K41T/L162R/M171V/P40S/Q125H/Q178H/Q39Y/R42S/S66N/T106N/T262R/W38E/Y61H)", "conditions": "read-out: Binding Capacity (IC 50% nM) Other Alleles DR3"}, "DRB1*0301 (DR3w17) [2]": {"biological_target": "T12, DRB1*0301 (DR3w17)", "experiment": "biochemical", "conditions": "Binding Capacity (IC50% nM) DR3"}, "[3]": {"conditions": "read-out: Binding Capacity (IC 50% nM) Other Alleles DR2w2a"}, "[4]": {"conditions": "Binding Capacity (IC50% nM) DR5w11"}, "[5]": {"conditions": "read-out: Binding Capacity (IC 50% nM) Other Alleles DR5w11"}, "[6]": {"conditions": "read-out: Binding Capacity (IC 50% nM) Other Alleles DR8w2"}, "[7]": {"conditions": "Binding Capacity (IC50% nM) DR5w12"}, "[8]": {"conditions": "read-out: Binding Capacity (IC 50% nM) Other Alleles DR5w12"}}, "note": "Like-named read-outs stand apart in the source and are kept apart here."}
{"smiles": "CC[C@H](C)[C@H](N)C(=O)N[C@@H](CCCCN)C(=O)N[C@@H](CC(C)C)C(=O)N1CCC[C@H]1C(=O)N[C@H](C(=O)N[C@H](C(=O)N[C@@H](CC(C)C)C(=O)N[C@@H](C)C(=O)N[C@@H](Cc1ccccc1)C(=O)N[C@@H](C)C(=O)N[C@H](C(=O)N[C@@H](CS)C(=O)N[C@@H](Cc1ccccc1)C(=O)N[C@@H](CC(C)C)C(=O)N[C@H](C(=O)N1CCC[C@H]1C(=O)O)[C@@H](C)CC)[C@@H](C)O)[C@@H](C)CC)[C@@H](C)CC", "note": "[Peptide 1136.12]", "values": [{"measurement": "IC50", "setting": "DRB1*0101 (DR1)", "value": "< 1000", "unit": "nM"}, {"measurement": "IC50", "setting": "DRB1*0401 (DR4w4); Binding Capacity (IC 50% nM) DR1,4,7 DR4w4", "value": "< 1000", "unit": "nM"}, {"measurement": "IC50", "setting": "DRB1*0701 (DR7); read-out: Binding Capacity (IC 50% nM) DR1,4,7 DR7", "value": "> 1000", "unit": "nM"}, {"measurement": "IC50", "setting": "DRB1*1501 (DR2w2b)", "value": "< 1000", "unit": "nM"}, {"measurement": "IC50", "setting": "DRB5*0101 (DR2w2a); [3]", "value": "> 1000", "unit": "nM"}, {"measurement": "IC50", "setting": "DRB1*0405 (DR4w15)", "value": "> 1000", "unit": "nM"}, {"measurement": "IC50", "setting": "DRB1*1101 (DR5w11); [4]", "value": "> 10000", "unit": "nM"}, {"measurement": "IC50", "setting": "DRB1*1101 (DR5w11); [5]", "value": "> 1000", "unit": "nM"}, {"measurement": "IC50", "setting": "DRB1*1302 (DR6w19)", "value": "< 1000", "unit": "nM"}, {"measurement": "IC50", "setting": "DRB1*0802 (DR8w2); [6]", "value": "> 1000", "unit": "nM"}, {"measurement": "IC50", "setting": "DRB1*0901 (DR9); read-out: Binding Capacity (IC 50% nM) Other Alleles DR9", "value": "> 1000", "unit": "nM"}, {"measurement": "IC50", "setting": "DRB1*1201 (DR5w12); [7]", "value": "> 10000", "unit": "nM"}, {"measurement": "IC50", "setting": "DRB1*1201 (DR5w12); [8]", "value": "> 1000", "unit": "nM"}, {"measurement": "IC50", "setting": "DRB1*0301 (DR3w17) [1]", "value": "> 1000", "unit": "nM"}, {"measurement": "IC50", "setting": "DRB1*0301 (DR3w17) [2]", "value": "> 10000", "unit": "nM"}]}
{"smiles": "CC(C)C[C@H](NC(=O)CNC(=O)[C@H](C)NC(=O)[C@@H](N)CC(C)C)C(=O)N[C@@H](CC(C)C)C(=O)NCC(=O)N[C@@H](CC(N)=O)C(=O)N[C@H](C(=O)N[C@@H](CO)C(=O)N[C@H](C(=O)N[C@H](C(=O)N[C@@H](CC(C)C)C(=O)N[C@@H](CC(C)C)C(=O)NCC(=O)NCC(=O)O)C(C)C)[C@@H](C)O)C(C)C", "note": "[Peptide F107.10]", "values": [{"measurement": "IC50", "setting": "DRB1*0101 (DR1)", "value": "< 1000", "unit": "nM"}, {"measurement": "IC50", "setting": "DRB1*0401 (DR4w4); read-out: Binding Capacity (IC 50% nM) DR1,4,7 DR4w4", "value": "> 1000", "unit": "nM"}, {"measurement": "IC50", "setting": "DRB1*0701 (DR7); Binding Capacity (IC 50% nM) DR1,4,7 DR7", "value": "< 1000", "unit": "nM"}, {"measurement": "IC50", "setting": "DRB1*1501 (DR2w2b)", "value": "< 1000", "unit": "nM"}, {"measurement": "IC50", "setting": "DRB5*0101 (DR2w2a); Binding Capacity (IC50% nM) DR2w2a", "value": "> 10000", "unit": "nM"}, {"measurement": "IC50", "setting": "DRB5*0101 (DR2w2a); [3]", "value": "> 1000", "unit": "nM"}, {"measurement": "IC50", "setting": "DRB1*0405 (DR4w15)", "value": "> 1000", "unit": "nM"}, {"measurement": "IC50", "setting": "DRB1*1101 (DR5w11); [4]", "value": "> 10000", "unit": "nM"}, {"measurement": "IC50", "setting": "DRB1*1101 (DR5w11); [5]", "value": "> 1000", "unit": "nM"}, {"measurement": "IC50", "setting": "DRB1*1302 (DR6w19)", "value": "< 1000", "unit": "nM"}, {"measurement": "IC50", "setting": "DRB1*0802 (DR8w2); Binding Capacity (IC50% nM) DR8w2", "value": "> 10000", "unit": "nM"}, {"measurement": "IC50", "setting": "DRB1*0802 (DR8w2); [6]", "value": "> 1000", "unit": "nM"}, {"measurement": "IC50", "setting": "DRB1*0901 (DR9); Binding Capacity (IC 50% nM) Other Alleles DR9", "value": "< 1000", "unit": "nM"}, {"measurement": "IC50", "setting": "DRB1*1201 (DR5w12); [7]", "value": "> 10000", "unit": "nM"}, {"measurement": "IC50", "setting": "DRB1*1201 (DR5w12); [8]", "value": "> 1000", "unit": "nM"}, {"measurement": "IC50", "setting": "DRB1*0301 (DR3w17) [1]", "value": "> 1000", "unit": "nM"}, {"measurement": "IC50", "setting": "DRB1*0301 (DR3w17) [2]", "value": "> 10000", "unit": "nM"}]}
